# Reference: ChEMBL document CHEMBL1201862, “PubChem BioAssay data set” (2004)
#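 In this assay, cells in 96-well plates receive the compound at five concentrations for 48 hours. Endpoints are linearly interpolated between the surrounding concentrations. GI50 = concentration required for 50% inhibition of growth.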 Activity calls are given as the source filed them. Cut-off read from the data, not from the text of the source: active = GI50 up to about 1.1 µM and inactive = higher.
# Assays:
# Assay in all cases: DTP human tumour cell line panel, 48 h
# HOP-92 = tested on: HOP-92
# K562 = tested on: K562
# SNB-78 = tested on: SNB-78
# OVCAR-3 = tested on: OVCAR-3
# NCI-H226 = tested on: NCI-H226
# HOP-18 = tested on: HOP-18
# IGROV-1 = tested on: IGROV-1
# KM12 = tested on: KM12
# KM-20L2 = tested on: KM-20L2
# HT-29 = tested on: HT-29
# SNB-19 = tested on: SNB-19
# SK-OV-3 = tested on: SK-OV-3
# OVCAR-5 = tested on: OVCAR-5
# ACHN = tested on: ACHN
# LOX IMVI = tested on: LOX IMVI
# NCI-H23 = tested on: NCI-H23
# Malme-3M = tested on: Malme-3M
# SN12C = tested on: SN12C
# RXF 631 = tested on: RXF 631
# CAKI-1 = tested on: CAKI-1
# RPMI-8226 = tested on: RPMI-8226
# SF-268 = tested on: SF-268
# SF-295 = tested on: SF-295
# A549 = tested on: A549
# SR = tested on: SR
# OVCAR-4 = tested on: OVCAR-4
# TK-10 = tested on: TK-10
# M19-MEL = tested on: M19-MEL
# A498 = tested on: A498
# M14 = tested on: M14
# SW-620 = tested on: SW-620
# 786-0 = tested on: 786-0
# RXF 393 = tested on: RXF 393
# NCI-H460 = tested on: NCI-H460
# COLO 205 = tested on: COLO 205
# HOP-62 = tested on: HOP-62
# SK-MEL-28 = tested on: SK-MEL-28
# SF-539 = tested on: SF-539
# HL-60 = tested on: HL-60
# OVCAR-8 = tested on: OVCAR-8
# LXFL 529 = tested on: LXFL 529
# HCT-15 = tested on: HCT-15
# SK-MEL-5 = tested on: SK-MEL-5
# UACC-257 = tested on: UACC-257
# DMS-273 = tested on: DMS-273
# UO-31 = tested on: UO-31
# HCT-116 = tested on: HCT-116
# MOLT-4 = tested on: MOLT-4
# DLD-1 = tested on: DLD-1
# SK-MEL-2 = tested on: SK-MEL-2
# DMS-114 = tested on: DMS-114
# UACC-62 = tested on: UACC-62
# U-251 = tested on: U-251
# CCRF-CEM = tested on: CCRF-CEM
# SNB-75 = tested on: SNB-75
# NCI-H522 = tested on: NCI-H522
# HCC 2998 = tested on: HCC 2998
# EKVX = tested on: EKVX
structure (smiles),measurement,setting,value
CCOC(=O)NC(=O)c1cn(C2CCCCC2)c(=O)n(C)c1=O,GI50,HOP-92,> 100 µM (inactive)
same,GI50,K562,> 100 µM (inactive)
same,GI50,SNB-78,> 100 µM (inactive)
same,GI50,OVCAR-3,> 100 µM (inactive)
same,GI50,NCI-H226,> 100 µM (inactive)
same,GI50,HOP-18,> 100 µM (inactive)
same,GI50,IGROV-1,> 100 µM (inactive)
same,GI50,KM12,> 100 µM (inactive)
same,GI50,KM-20L2,> 100 µM (inactive)
same,GI50,HT-29,> 100 µM (inactive)
same,GI50,SNB-19,> 100 µM (inactive)
same,GI50,SK-OV-3,> 100 µM (inactive)
same,GI50,OVCAR-5,> 100 µM (inactive)
same,GI50,ACHN,> 100 µM (inactive)
same,GI50,LOX IMVI,> 100 µM (inactive)
same,GI50,NCI-H23,> 100 µM (inactive)
same,GI50,Malme-3M,> 100 µM (inactive)
same,GI50,SN12C,> 100 µM (inactive)
same,GI50,RXF 631,> 100 µM (inactive)
same,GI50,CAKI-1,> 100 µM (inactive)
same,GI50,RPMI-8226,> 100 µM (inactive)
same,GI50,SF-268,> 100 µM (inactive)
same,GI50,SF-295,> 100 µM (inactive)
same,GI50,A549,> 100 µM (inactive)
same,GI50,SR,> 100 µM (inactive)
same,GI50,OVCAR-4,> 100 µM (inactive)
same,GI50,TK-10,> 100 µM (inactive)
same,GI50,M19-MEL,> 100 µM (inactive)
same,GI50,A498,> 100 µM (inactive)
same,GI50,M14,> 100 µM (inactive)
same,GI50,SW-620,> 100 µM (inactive)
same,GI50,786-0,> 100 µM (inactive)
same,GI50,RXF 393,> 100 µM (inactive)
same,GI50,NCI-H460,> 100 µM (inactive)
same,GI50,COLO 205,> 100 µM (inactive)
same,GI50,HOP-62,> 100 µM (inactive)
same,GI50,SK-MEL-28,> 100 µM (inactive)
same,GI50,SF-539,> 100 µM (inactive)
same,GI50,HL-60,> 100 µM (inactive)
same,GI50,OVCAR-8,> 100 µM (inactive)
same,GI50,LXFL 529,> 100 µM (inactive)
same,GI50,HCT-15,> 100 µM
same,GI50,SK-MEL-5,> 100 µM (inactive)
same,GI50,UACC-257,> 100 µM (inactive)
same,GI50,DMS-273,> 100 µM (inactive)
same,GI50,UO-31,> 100 µM (inactive)
same,GI50,HCT-116,> 100 µM (inactive)
same,GI50,MOLT-4,> 100 µM (inactive)
same,GI50,DLD-1,> 100 µM (inactive)
same,GI50,SK-MEL-2,> 100 µM (inactive)
same,GI50,DMS-114,> 100 µM (inactive)
same,GI50,UACC-62,> 100 µM (inactive)
same,GI50,U-251,> 100 µM (inactive)
same,GI50,CCRF-CEM,> 100 µM (inactive)
same,GI50,SNB-75,> 100 µM (inactive)
same,GI50,NCI-H522,> 100 µM (inactive)
same,GI50,HCC 2998,> 100 µM (inactive)
COC(=O)C1C(O)CC(c2ccccn2)N(Cc2ccccc2)C1c1ccccn1 (centres undefined),GI50,HOP-92,> 100 µM (inactive)
same,GI50,K562,44.4 µM (inactive)
same,GI50,SNB-78,> 100 µM (inactive)
same,GI50,OVCAR-3,> 100 µM (inactive)
same,GI50,NCI-H226,> 100 µM (inactive)
same,GI50,HOP-18,> 100 µM (inactive)
same,GI50,IGROV-1,> 100 µM (inactive)
same,GI50,KM12,> 100 µM (inactive)
same,GI50,KM-20L2,> 100 µM (inactive)
same,GI50,HT-29,> 100 µM (inactive)
same,GI50,SNB-19,> 100 µM (inactive)
same,GI50,SK-OV-3,> 100 µM (inactive)
same,GI50,OVCAR-5,> 100 µM (inactive)
same,GI50,ACHN,> 100 µM (inactive)
same,GI50,EKVX,> 100 µM (inactive)
same,GI50,LOX IMVI,> 100 µM (inactive)
same,GI50,NCI-H23,> 100 µM (inactive)
same,GI50,Malme-3M,> 100 µM (inactive)
same,GI50,SN12C,> 100 µM (inactive)
same,GI50,RXF 631,> 100 µM (inactive)
same,GI50,CAKI-1,> 100 µM (inactive)
same,GI50,RPMI-8226,23.4 µM (inactive)
same,GI50,SF-268,> 100 µM (inactive)
same,GI50,SF-295,> 100 µM (inactive)
same,GI50,A549,> 100 µM (inactive)
same,GI50,OVCAR-4,> 100 µM (inactive)
same,GI50,TK-10,> 100 µM (inactive)
same,GI50,M19-MEL,> 100 µM (inactive)
same,GI50,A498,> 100 µM (inactive)
same,GI50,M14,> 100 µM (inactive)
same,GI50,SW-620,> 100 µM (inactive)
same,GI50,786-0,> 100 µM (inactive)
same,GI50,RXF 393,> 100 µM (inactive)
same,GI50,NCI-H460,> 100 µM (inactive)
same,GI50,COLO 205,> 100 µM (inactive)
same,GI50,HOP-62,> 100 µM (inactive)
same,GI50,SK-MEL-28,> 100 µM (inactive)
same,GI50,SF-539,> 100 µM (inactive)
same,GI50,HL-60,15.6 µM (inactive)
same,GI50,OVCAR-8,> 100 µM (inactive)
same,GI50,LXFL 529,> 100 µM (inactive)
same,GI50,HCT-15,> 100 µM
same,GI50,SK-MEL-5,84.3 µM (inactive)
same,GI50,UACC-257,> 100 µM (inactive)
same,GI50,DMS-273,> 100 µM (inactive)
same,GI50,UO-31,> 100 µM (inactive)
same,GI50,HCT-116,94.4 µM (inactive)
same,GI50,MOLT-4,37.6 µM (inactive)
same,GI50,DLD-1,> 100 µM (inactive)
same,GI50,SK-MEL-2,> 100 µM (inactive)
same,GI50,DMS-114,> 100 µM (inactive)
same,GI50,UACC-62,> 100 µM (inactive)
same,GI50,U-251,> 100 µM (inactive)
same,GI50,CCRF-CEM,> 100 µM (inactive)
same,GI50,SNB-75,> 100 µM (inactive)
same,GI50,NCI-H522,> 100 µM (inactive)
same,GI50,HCC 2998,> 100 µM (inactive)
